The source made the active and inactive calls.
Tests used:
[1] = reduction of Shn3 3'UTR-driven luciferase in osteoblasts – cell-based, Clone20 osteoblasts, firefly luciferase, cherry-picked, dose response (AID 624132); assay type: functional;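 note: firefly luciferase luminescence from reporter carrying the Shn3 3'UTR in osteoblasts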
[2] = blockers of bursicon-stimulated LGR2 cAMP reporter – cell-based, HEK293, CRE-luciferase reporter, cherry pick, set 2, dose response (AID 743343); assay type: functional;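 note: transfected cells were stimulated with diluted bursicon conditioned medium after compound addition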
[3] = viability loss in HEK293 cells – cell-based, plate reader, cherry-picked samples, cytotoxicity control, dose response (AID 743446); assay type: functional
[4] = molecular target: T1, COUP transcription factor 2 (Homo sapiens, UniProt P24468); test: Luminescence-based cell-based high throughput dose response assay to identify inhibitors of COUP-TFII (NR2F2).; assay type: functional;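 note: HEK293 cells transiently cotransfected with COUP-TFII expression vector and reporter; luciferase reporter luminescence driven by COUP-TFII from the pX2-168 reporter plasmid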
T1 sequence (P24468 whole entry): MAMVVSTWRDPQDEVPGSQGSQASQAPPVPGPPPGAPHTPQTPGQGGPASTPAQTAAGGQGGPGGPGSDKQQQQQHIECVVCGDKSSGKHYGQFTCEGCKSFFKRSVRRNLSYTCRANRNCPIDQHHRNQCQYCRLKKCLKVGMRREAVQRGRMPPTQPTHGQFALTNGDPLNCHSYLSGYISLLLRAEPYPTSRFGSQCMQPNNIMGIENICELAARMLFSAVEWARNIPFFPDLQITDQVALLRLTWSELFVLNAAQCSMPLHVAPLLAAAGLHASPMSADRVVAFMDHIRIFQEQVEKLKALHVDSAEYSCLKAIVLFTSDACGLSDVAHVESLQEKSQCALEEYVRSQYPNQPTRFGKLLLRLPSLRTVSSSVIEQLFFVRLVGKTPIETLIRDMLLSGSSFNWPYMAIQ

BJ [5] = test: cells; assay type: functional, cell-based; settings: Homo sapiens
[6] = toxicity toward HepG2 liver cells – cell-based, plate reader, cherry-pick, antagonist series, cytotoxicity control, dose response (AID 743416); assay type: functional
[7] = A549 cell cytotoxicity, dose response, cytotoxicity control, plate reader, cherry-pick, antagonist series (AID 743412); assay type: functional, cell-based
[8] = non-specific 3'UTR reporter inhibition in Clone20-Shn3RL – cell-based, Renilla luciferase, cherry-picked, counter-screen for Shn3 inhibitor project, dose response (AID 624133); assay type: functional
[9] = loss of viability in HepG2 cells – cell-based, CellTiter-Glo, cherry-picked, cytotoxicity control for Shn3 inhibitor project, dose response (AID 624134); assay type: functional
[10] = DRD fibroblast viability loss – cell-based, non-viral oncogenic, luminescence, dose response (AID 1934); assay type: functional; settings: Homo sapiens
[11] = molecular target: E3 ubiquitin-protein ligase Mdm2 (Homo sapiens, UniProt Q00987); test: MDM2-luc reporter signal enhancers, multi-concentration potency testing, MDM2 ubiquitin-protein ligase inhibitor program, whole-cell format, luminescence detection, 384-well microplate (AID 1394); assay type: functional;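 note: MDM2 E3 inhibitors raise luminescence so EC50 is for signal enhancement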
Sequence of E3 ubiquitin-protein ligase Mdm2 (Q00987 whole entry): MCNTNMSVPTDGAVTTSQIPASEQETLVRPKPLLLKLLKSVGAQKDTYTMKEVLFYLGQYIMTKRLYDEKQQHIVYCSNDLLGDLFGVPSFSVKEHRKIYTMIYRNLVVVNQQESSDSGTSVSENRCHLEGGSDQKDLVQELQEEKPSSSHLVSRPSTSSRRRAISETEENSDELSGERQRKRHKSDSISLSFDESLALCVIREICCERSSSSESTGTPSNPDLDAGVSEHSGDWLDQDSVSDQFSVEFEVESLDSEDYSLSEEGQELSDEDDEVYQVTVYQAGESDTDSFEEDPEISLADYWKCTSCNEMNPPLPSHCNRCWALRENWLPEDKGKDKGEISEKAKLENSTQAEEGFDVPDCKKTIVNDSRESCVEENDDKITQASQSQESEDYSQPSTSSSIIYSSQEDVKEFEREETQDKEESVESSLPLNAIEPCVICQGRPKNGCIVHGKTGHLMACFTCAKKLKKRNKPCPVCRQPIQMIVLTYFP

Vero [12] = test: cells; assay type: functional, cell-based; settings: Chlorocebus sabaeus
[13] = blockade of melanocortin 4 receptor signaling – cell-based, plate reader, cherry pick, counter-screen for LGR2 antagonist project, dose response (AID 743444); assay type: functional;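 note: transfected HEK 293 cells stimulated with alpha-MSH peptide; potency of inhibitors of the alpha-MSH evoked signal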
Vero [14] = test: cells; assay type: functional, Chlorocebus sabaeus; settings: Chlorocebus sabaeus, Vero
BJ [15] = test: BJ-TERT-LT-ST fibroblast viability loss – cell-based, RAS-independent, luminescence, dose response (AID 1935); assay type: functional; settings: Homo sapiens;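 note: BJ fibroblasts immortalized with TERT plus LT and ST oncogenes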
BJ [16] = test: BJ-TERT fibroblast viability loss – cell-based, RAS-independent, luminescence, dose response (AID 1933); assay type: functional; settings: Homo sapiens
[17] = molecular target: Mitogen-activated protein kinase 10 (Homo sapiens, UniProt P53779); test: Dose response biochemical screening assay for inhibitors of c-Jun N-Terminal Kinase 3 (JNK3). [Related pubchem assays: 746 ]
Sequence of Mitogen-activated protein kinase 10 (P53779 whole entry): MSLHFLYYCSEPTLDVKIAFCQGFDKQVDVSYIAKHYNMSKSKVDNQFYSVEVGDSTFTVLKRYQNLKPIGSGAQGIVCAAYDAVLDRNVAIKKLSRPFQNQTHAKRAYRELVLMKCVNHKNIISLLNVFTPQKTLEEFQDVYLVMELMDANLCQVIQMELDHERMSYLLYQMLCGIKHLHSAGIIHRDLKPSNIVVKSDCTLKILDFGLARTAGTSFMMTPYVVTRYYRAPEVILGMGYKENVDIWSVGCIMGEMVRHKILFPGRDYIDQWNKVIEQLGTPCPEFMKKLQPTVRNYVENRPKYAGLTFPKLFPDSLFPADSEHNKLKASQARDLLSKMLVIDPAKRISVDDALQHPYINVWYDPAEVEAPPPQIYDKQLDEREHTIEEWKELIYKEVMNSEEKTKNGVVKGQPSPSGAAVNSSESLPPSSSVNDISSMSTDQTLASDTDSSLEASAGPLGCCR

[18] = molecular target: Ubiquitin carboxyl-terminal hydrolase BAP1 (Homo sapiens, UniProt Q92560); test: inhibition of BAP1 ubiquitin hydrolase activity – biochemical, dose response (AID 714); assay type: functional
[19] = molecular target: T2, Tyrosine-protein phosphatase non-receptor type 7 (Homo sapiens, UniProt P35236); test: HePTP tyrosine phosphatase activity blockers – biochemical, absorbance, leukemia target, primary screen (AID 521); assay type: functional
T2 sequence (P35236 whole entry): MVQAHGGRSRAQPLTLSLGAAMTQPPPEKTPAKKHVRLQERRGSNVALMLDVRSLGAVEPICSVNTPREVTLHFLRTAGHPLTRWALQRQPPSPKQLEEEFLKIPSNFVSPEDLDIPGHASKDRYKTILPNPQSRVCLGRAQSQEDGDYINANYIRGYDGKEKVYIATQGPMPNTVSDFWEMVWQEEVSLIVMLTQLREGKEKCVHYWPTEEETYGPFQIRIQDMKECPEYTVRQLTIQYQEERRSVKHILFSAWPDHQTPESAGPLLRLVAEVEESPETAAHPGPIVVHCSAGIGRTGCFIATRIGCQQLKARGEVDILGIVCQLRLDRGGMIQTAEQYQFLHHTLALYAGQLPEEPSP

[20] = HCT116 cell viability decrease, GSK3B pretreatment – CellTiter-Glo, IC50, dose response (AID 1117339); assay type: functional; settings: HCT-116
[21] = CellTiter-Glo luminescence survival assay, SW480 colon tumor line, concentration-response curve, half-maximal inhibitory concentration (AID 1117338); assay type: functional
[22] = rise of 2N DNA cells, HeLa – IC50, dose response (AID 1117349); assay type: functional, cell-based
[23] = cytotoxicity toward HCT116 cells – cell-based, CellTiter-Glo luminescence, IC50, dose response (AID 1117332); assay type: functional; settings: HCT-116
[24] = Reduced DLD-1 viability, concentration-response, CellTiter-Glo luminescence (AID 1117352); assay type: functional
[25] = cytotoxicity toward HT-29 cells – cell-based, CellTiter-Glo luminescence, IC50, dose response (AID 1117330); assay type: functional
[26] = SNU-C1 cell viability reduction, dose response, CellTiter-Glo luminescence (AID 1117323); assay type: functional, cell-based
[27] = molecular target: 5-hydroxytryptamine receptor 1A (Homo sapiens, UniProt P08908); assay type: functional
[28] = Dd2 malaria parasite growth inhibition potency – SYBR Green, dry powder samples, dose response (AID 1159566); assay type: functional, cell-based;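 note: potency for growth inhibition with lower SYBR green DNA signal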
[29] = growth inhibition of yeast DHODH-expressing 3D7 parasites – SYBR Green, dry powder samples, dose response (AID 1159570); assay type: functional, cell-based;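 note: parasite growth measured after 72 hours of compound exposure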
[30] = growth inhibition of PfATP4-mutant resistant parasites – NITD609-resistant line, SYBR Green, dry powder, dose response (AID 1159571); assay type: functional, cell-based;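 note: parasites synchronized at ring stage by sorbitol before testing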
[31] = Plasmodium falciparum Dd2 Sybr green parasite growth Measured in Cell-Based and Microorganism Combination System Using Plate Reader - 2153-01_Inhibitor_Dose_DryPowder_Activity_Set3.; assay type: functional
[32] = toxicity to human hepatoma HepG2 cells – cell-based, cherry-picked samples, cytotoxicity control, dose response (AID 1159577); assay type: functional
[33] = toxicity to human HepG2 hepatoma cells – cell-based, plate reader, dry powder samples, cytotoxicity control, dose response (AID 1159569); assay type: functional;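 note: inhibitor potency with signal falling toward the positive control level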
[34] = Dd2 parasite growth inhibition in erythrocytes – SYBR Green, dry powder samples, set 9, dose response (AID 1159568); assay type: functional, cell-based
[35] = P. falciparum Dd2 growth inhibitors, dose response, SYBR Green, cherry-picked samples (AID 1159567); assay type: functional, cell-based
[36] = molecular target: T3, Heat shock factor protein 1 (Mus musculus, UniProt P38532); test: decrease of HSF1-responsive luciferase luminescence – cell-based, NIH3T3, dose retest, confirmation (AID 2382); assay type: functional;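 note: NIH3T3 fibroblasts with HSF1-driven luciferase reporter stressed by proteasome inhibitor MG132; luminescence from HSF1-driven luciferase expression after 8 hours of MG132 stress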
T3 sequence (P38532 whole entry): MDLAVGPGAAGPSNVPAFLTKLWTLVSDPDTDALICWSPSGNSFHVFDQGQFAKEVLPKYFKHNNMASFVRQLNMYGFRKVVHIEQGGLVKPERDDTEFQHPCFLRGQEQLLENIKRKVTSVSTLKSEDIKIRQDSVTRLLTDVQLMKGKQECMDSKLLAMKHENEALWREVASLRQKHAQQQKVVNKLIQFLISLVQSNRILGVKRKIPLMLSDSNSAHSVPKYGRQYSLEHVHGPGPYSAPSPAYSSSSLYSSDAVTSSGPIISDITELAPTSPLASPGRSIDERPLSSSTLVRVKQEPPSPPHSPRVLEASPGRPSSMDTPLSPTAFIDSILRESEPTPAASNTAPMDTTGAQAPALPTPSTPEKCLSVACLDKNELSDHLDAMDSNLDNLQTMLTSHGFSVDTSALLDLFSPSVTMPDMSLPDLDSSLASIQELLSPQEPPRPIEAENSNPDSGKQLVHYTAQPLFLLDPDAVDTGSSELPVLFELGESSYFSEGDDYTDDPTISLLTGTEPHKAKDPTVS

[37] = viability of uninfected HEp-2 cells – cell-based, HTS, cytotoxicity control for RSV inhibitor project, dose response (AID 2410); assay type: functional; settings: human respiratory syncytial virus
[38] = fluconazole-exposed Candida albicans growth modulators – fluorescence, retest, confirmation (AID 2467); assay type: functional, cell-based
[39] = NIH-3T3 fibroblast cytotoxicity, dose response, cytotoxicity control, cell-based, fluorescence, Alamar Blue, secondary assay (AID 2327); assay type: functional;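 note: NIH-3T3 mouse fibroblasts cultured with fluconazole at 8 µg/mL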
Ephrin type-A receptor 4 = Ephrin type-A receptor 4 (Mus musculus, UniProt Q03137); test: EphA4 ligand-binding antagonists – biochemical, colorimetric, mouse EphA4, primary screen (AID 689); assay type: functional
Sequence of Ephrin type-A receptor 4 (Q03137 whole entry): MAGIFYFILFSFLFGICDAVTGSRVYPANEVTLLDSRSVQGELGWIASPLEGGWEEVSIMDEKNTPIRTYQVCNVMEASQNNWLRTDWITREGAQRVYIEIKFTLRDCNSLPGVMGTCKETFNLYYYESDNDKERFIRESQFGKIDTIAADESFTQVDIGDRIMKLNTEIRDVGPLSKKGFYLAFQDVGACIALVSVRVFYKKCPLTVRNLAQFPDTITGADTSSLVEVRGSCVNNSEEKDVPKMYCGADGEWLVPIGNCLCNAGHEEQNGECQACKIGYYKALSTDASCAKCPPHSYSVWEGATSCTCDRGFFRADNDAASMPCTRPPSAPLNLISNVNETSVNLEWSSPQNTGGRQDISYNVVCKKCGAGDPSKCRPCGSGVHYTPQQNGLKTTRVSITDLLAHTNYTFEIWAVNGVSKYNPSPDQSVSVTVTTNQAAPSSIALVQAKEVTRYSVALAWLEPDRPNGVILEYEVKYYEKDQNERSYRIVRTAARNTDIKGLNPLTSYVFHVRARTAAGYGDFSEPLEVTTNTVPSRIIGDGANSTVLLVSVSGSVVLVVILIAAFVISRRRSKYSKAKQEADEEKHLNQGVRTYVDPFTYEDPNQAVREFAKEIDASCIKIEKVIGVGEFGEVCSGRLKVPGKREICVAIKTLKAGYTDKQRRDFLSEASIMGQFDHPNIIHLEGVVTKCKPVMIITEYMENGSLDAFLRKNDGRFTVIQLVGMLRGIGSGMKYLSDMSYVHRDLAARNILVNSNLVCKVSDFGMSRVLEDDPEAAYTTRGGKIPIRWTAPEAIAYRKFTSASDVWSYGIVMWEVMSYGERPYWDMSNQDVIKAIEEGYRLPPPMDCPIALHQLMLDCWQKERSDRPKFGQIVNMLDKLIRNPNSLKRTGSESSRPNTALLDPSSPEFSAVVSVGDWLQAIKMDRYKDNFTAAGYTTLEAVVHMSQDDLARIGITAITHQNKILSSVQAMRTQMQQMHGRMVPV

[40] = viability inhibitors of stage V gametocytes – luminescence, dose response (AID 1117278); assay type: functional, cell-based;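 note: gametocytes exposed to compound for 24 hours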
[41] = viability loss in human Jurkat cells – cell-based, luminescence, cytotoxicity control for P. falciparum gametocyte viability project, dose response (AID 1117277); assay type: functional;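 note: potency reflects loss of cellular ATP meaning fewer viable cells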
[42] = molecular target: T4, Voltage-gated N-type calcium channel alpha-1B subunit/Amyloid beta A4 precursor protein-binding family A member 1 (Homo sapiens, UniProt Q00975+Q02410); assay type: protein assay
T4 sequence (Q00975 whole entry, the tested form may be a part): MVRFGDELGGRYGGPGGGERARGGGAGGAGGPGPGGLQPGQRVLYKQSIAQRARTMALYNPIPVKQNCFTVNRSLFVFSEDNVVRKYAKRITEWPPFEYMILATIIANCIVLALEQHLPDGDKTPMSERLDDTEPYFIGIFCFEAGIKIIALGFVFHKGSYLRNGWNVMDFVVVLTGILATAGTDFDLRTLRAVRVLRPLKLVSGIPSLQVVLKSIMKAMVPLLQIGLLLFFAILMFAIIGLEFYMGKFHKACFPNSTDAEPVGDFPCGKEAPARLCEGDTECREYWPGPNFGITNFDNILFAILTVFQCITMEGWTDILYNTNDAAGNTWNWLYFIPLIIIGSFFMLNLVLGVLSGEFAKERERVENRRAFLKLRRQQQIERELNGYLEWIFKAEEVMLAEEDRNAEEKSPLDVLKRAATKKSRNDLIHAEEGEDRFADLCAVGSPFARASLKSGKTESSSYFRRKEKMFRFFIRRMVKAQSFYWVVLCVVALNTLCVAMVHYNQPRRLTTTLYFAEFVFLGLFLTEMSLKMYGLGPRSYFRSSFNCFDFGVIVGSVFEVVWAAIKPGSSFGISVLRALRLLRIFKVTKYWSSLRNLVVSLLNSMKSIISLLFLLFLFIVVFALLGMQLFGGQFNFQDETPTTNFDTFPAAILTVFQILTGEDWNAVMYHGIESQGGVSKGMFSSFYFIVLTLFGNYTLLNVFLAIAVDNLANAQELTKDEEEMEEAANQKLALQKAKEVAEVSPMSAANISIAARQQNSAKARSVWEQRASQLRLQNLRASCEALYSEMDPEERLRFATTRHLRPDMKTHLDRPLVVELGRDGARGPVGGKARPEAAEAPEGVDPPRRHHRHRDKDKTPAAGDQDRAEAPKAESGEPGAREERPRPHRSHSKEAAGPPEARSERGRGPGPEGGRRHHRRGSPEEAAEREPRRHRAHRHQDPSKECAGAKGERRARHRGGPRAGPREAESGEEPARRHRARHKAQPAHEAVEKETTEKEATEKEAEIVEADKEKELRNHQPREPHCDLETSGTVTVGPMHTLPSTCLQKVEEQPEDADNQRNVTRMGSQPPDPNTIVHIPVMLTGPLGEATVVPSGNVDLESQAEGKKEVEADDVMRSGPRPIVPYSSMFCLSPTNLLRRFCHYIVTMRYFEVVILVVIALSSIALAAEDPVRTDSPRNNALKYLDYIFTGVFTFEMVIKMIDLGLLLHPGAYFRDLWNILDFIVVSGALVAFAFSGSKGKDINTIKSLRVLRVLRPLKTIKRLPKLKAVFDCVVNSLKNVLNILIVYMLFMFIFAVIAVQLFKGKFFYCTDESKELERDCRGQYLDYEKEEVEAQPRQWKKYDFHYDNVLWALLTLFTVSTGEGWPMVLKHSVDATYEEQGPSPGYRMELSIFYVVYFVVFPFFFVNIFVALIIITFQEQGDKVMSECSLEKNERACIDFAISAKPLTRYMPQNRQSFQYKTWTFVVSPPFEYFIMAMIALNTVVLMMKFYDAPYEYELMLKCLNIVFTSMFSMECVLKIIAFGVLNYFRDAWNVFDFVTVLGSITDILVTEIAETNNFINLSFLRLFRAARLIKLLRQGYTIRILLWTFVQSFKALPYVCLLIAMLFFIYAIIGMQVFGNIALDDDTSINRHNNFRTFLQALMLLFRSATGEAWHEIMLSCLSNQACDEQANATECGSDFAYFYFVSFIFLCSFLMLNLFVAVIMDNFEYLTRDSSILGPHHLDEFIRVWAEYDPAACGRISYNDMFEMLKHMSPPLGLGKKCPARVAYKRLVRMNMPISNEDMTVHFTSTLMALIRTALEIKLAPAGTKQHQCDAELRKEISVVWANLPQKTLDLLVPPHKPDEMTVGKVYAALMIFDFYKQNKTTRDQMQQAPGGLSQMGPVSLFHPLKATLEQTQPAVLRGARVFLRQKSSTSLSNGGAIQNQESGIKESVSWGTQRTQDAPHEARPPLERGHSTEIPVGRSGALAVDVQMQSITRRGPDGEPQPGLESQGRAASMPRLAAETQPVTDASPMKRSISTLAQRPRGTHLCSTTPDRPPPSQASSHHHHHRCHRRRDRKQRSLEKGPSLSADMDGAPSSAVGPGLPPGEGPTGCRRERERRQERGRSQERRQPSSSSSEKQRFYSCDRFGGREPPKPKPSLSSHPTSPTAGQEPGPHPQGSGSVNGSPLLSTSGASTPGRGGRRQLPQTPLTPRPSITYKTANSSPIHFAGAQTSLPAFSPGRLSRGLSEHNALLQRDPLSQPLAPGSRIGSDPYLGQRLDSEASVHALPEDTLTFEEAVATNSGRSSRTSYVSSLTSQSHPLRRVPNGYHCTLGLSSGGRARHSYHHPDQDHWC
T4 sequence (Q02410 whole entry, the tested form may be a part): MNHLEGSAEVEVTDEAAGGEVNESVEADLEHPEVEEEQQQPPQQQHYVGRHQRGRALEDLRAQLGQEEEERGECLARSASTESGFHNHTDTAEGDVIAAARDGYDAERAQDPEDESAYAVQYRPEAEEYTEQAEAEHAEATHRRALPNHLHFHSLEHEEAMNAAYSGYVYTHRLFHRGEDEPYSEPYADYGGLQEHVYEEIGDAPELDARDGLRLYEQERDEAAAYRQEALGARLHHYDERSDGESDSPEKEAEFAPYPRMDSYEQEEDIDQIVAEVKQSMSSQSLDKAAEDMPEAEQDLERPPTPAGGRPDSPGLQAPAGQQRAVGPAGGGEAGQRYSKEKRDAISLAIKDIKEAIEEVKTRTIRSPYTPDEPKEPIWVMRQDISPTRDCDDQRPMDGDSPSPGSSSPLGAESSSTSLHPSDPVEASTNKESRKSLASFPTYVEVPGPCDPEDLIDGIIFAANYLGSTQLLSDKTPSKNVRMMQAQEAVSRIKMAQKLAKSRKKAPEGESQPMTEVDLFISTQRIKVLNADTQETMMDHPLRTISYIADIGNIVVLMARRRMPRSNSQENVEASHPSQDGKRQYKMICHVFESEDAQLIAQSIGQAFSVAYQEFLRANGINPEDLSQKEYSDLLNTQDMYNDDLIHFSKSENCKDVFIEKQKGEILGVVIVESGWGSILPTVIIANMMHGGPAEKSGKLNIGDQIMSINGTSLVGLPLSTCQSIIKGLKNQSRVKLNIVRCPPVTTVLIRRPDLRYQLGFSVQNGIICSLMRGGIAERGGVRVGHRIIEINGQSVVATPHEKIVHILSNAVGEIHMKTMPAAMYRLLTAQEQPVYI

[43] = molecular target: T5, Carboxy-terminal domain RNA polymerase II polypeptide A small phosphatase 1 (Homo sapiens, UniProt Q9GZU7); test: CTDSP1 inhibitors, concentration-response, biochemical, absorbance readout, ultra-high-throughput screen actives (AID 540297); assay type: functional
T5 sequence (Q9GZU7 whole entry): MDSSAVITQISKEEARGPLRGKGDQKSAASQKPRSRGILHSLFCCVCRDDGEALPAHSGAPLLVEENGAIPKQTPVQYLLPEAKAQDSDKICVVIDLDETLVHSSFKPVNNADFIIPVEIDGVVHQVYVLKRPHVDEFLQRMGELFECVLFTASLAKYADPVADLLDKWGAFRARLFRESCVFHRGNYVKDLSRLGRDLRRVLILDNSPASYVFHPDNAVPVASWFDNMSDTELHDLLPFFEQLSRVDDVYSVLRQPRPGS

Protein Tat = Protein Tat (Human immunodeficiency virus type 1 group M subtype B (isolate HXB2)(HIV-1), UniProt P04608); assay type: functional;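 note: tat binding to TAR RNA read out by fluorescence polarization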
[44] = molecular target: T4, Voltage-gated N-type calcium channel alpha-1B subunit/Amyloid beta A4 precursor protein-binding family A member 1; assay type: protein assay; remark: listed apart in the source
[45] = rise of 4N DNA cells, HeLa – IC50, dose response (AID 1117351); assay type: functional, cell-based
[46] = IC50 of insulin release inhibition, rat insulinoma INS-1E line, 5 mM glucose, cell-based (AID 1117331); assay type: functional
cells = assay type: functional, cell-based; settings: INS-1E

## CCSc1nc2ccccc2n1C(=O)/C=C/c1ccc(OC)c(OC)c1
[1]
  AC50: 0.962 µM (active)
[2]
  AC50: 4.61 µM (active)
[3]
  AC50: 5.58 µM (active)
[4]
  IC50: 8.54 µM (active)
BJ [5]
  EC50: > 75 µM (inconclusive)
[6]
  AC50: 12.9 µM (active)
[7]
  AC50: 5.61 µM (active)
[8]
  AC50: 7.89 µM (active)
[9]
  AC50: 47 µM (active)
[10]
  EC50: 5.41 µM (inconclusive)
[11]
  EC50: 2.65 µM (active)
Vero [12]
  IC50: 10.4 µM (active)
[13]
  AC50: 5.86 µM (active)
Vero [14]
  CC50: 20.2 µM (active)
BJ [15]
  EC50: 13.6 µM (active)
BJ [16]
  EC50: > 150 µM (not active)

## CC(C)n1nc(C(=O)OCC(=O)N(C)C2CCS(=O)(=O)C2)c2ccccc2c1=O (stereo not given)
[17]
  IC50: 35.5 µM (not active)

## N#Cc1c(NC(=O)CSc2nnnn2C2CCCCC2)sc2c1CCCC2
[18]
  IC50: > 50 µM (not active)

## CCn1c(COc2ccc(Cl)c(C)c2)nnc1SCC(=O)N1CCCC1
[19]
  IC50: > 100 µM (not active)

## CC(C)C[C@H](NC(=O)[C@H](Cc1ccccc1)NC(=O)c1cnccn1)B(O)O
[20]
  IC50: 0.00241 µM (active)
[21]
  IC50: 0.00513 µM (active)
[22]
  IC50: 0.0078 µM (active)
[23]
  IC50: 0.00365 µM (active)
[24]
  IC50: 0.00636 µM (active)
[25]
  IC50: 0.00315 µM (active)
[26]
  IC50: 0.0032 µM (active)

## CCN(CC)c1nc(N2CCOCC2)c(C#N)c2c1CN(C)CC2
[27]
  EC50: > 50 µM (not active)

## COc1ccc(-c2ccc([C@H]3[C@@H](C#N)N(C(=O)NC(C)C)[C@@H]3CO)cc2)cc1
[28]
  AC50: 0.472 µM (active)
[29]
  AC50: 14.7 µM (active)
[30]
  AC50: 0.528 µM (active)
[31]
  AC50: 0.511 µM (active)
[32]
  AC50: > 39 µM (inactive)
[33]
  AC50: 78 µM (active)
[34]
  AC50: 0.604 µM (active)
[35]
  AC50: 0.725 µM (active)

## COc1ccc(NC2=Nc3ccccc3N3C2=Nc2c(c(C)nn2-c2ccc(C)cc2)C3c2cccnc2)cc1 (stereo not given)
[36]
  EC50: > 195 µM (not active)
[37]
  CC50: > 50 µM (active)
[38]
  EC50: > 38 µM (not active)
[39]
  EC50: 53.8 µM (active)
Ephrin type-A receptor 4
  IC50: 10.4 µM (active)

## CC(CC(=O)Nc1ccc(F)c([N+](=O)[O-])c1)c1ccccc1 (stereo not given)
[40]
  IC50: > 109 µM (inactive)
[41]
  IC50: > 83.3 µM (inactive)

## COc1ccc(NS(=O)(=O)c2cccc(C(=O)NNC(=O)c3cccn3C)c2)cc1
[42]
  IC50: 23.5 µM (active)
[43]
  IC50: 5.42 µM (active)
Protein Tat
  IC50: > 100 µM (active)
[44]
  IC50: > 50 µM (inactive)

## CCN(CC)CCOc1ccccc1C(=O)CCc1ccccc1 [ETAFENONE]
[22]
  IC50: > 10 µM (inactive)
[45]
  IC50: > 10 µM (inactive)
[46]
  IC50: 3.89 µM (active)
cells
  IC50: > 33.3 µM (inactive)
